How the values were obtained:
SC10 = assay: Proliferation assay (population growth curves, DIP rates) in SKMEL5 subline SC10; type: cell-based, human; details: for effect of combination with BRAFi on proliferation (DIP rates): combination with PLX4720 8 μM
Protocol: The cells are labeled lentivirally with a fluorescent, nuclear tag (Histone 2B monomeric Red Fluorescent Protein, H2BmRFP from AddGene), flow sorted for H2BmRFP positivity (top 10-15% brightest), and fluorescently counted under drug treatments. Cells are seeded into 96 well plates (1-5,000 cells per well) and drug treatments applied the following day, including DMSO or PBS control (all concentrations contained equal percentage of DMSO or PBS solvent). Images are taken every 8-12 hours with sufficient image alignment (montaging) in order to capture about 25-100 cells per well/treatment (over the course of the experiment, cell counts typically exceed 1,000 in DMSO or low drug concentration wells). Direct measurements of cell counts are made using Cellavista software and Image J macros. The images are filtered through these computer programs to track and label each cell, quantifying the number of cells in each time-stamped frame. Proliferation is platted as log2 normalized growth, using the initial cell count from the first image frame for normalization. Dose-response curves are generated using a 2-fold dilution of single drugs at various concentrations ranked highest to zero (zero containing only the solvent the drug was dissolved in, being either DMSO or H2O); all concentrations contained equal volumes of the solvent used. For combinations with PLX4720 (BRAF inhibitor), 8 μM PLX4720 was used as diluent, and serially diluted with the second drug from highest concentration to lowest. The drug-induced proliferation (DIP) rates (see, Harris, L. A., et al. “An unbiased metric of antiproliferative drug effect in vitro,” Nature Methods', 2016, vol. 13, p. 497-500.) are calculated using the slope of the log2-normalized population curves after 24 hrs. BRAF-mutated melanoma cells (SKMEL5, A375, WM793, SKMEL19, SKMEL28, WM164, WM88, A2058) were grown and cultured in Dulbecco's modified Eagle's medium and Ham's F-12 medium (DMEM:F12, 1:1. Cat #11330-032). Media were obtained from Gibco (Grand Island, N.Y.) and supplemented with 10% FBS, All cells were cultured in CO2, temperature-controlled (37° C.), and humidified incubators. Cells were tested for mycoplasma before use and confirmed negative. Cells were passaged 1-2× per week and maintained as exponentially growing cultures for a maximum of less than 2.0 passages. Unless otherwise indicated, cells were seeded 16-24 h prior to treatment to allow cells to adhere to culture plates. Reagents/drugs were prepared in complete medium immediately prior to adding to cells by replacement. PLX4720 (Cat #S1152) and vemurafenib (Cat #S1267) were obtained from Selleckchem (Houston, Tex.) solubilized in dimethyl sulfoxide (DMSO) at a stock concentration of 10 mM. […]

A2058 cells = assay: Proliferation assay (population growth curves, DIP rates) in A2058 cells; type: cell-based, human
Protocol: The cells are labeled lentivirally with a fluorescent, nuclear tag (Histone 2B monomeric Red Fluorescent Protein, H2BmRFP from AddGene), flow sorted for H2BmRFP positivity (top 10-15% brightest), and fluorescently counted under drug treatments. Cells are seeded into 96 well plates (1-5,000 cells per well) and drug treatments applied the following day, including DMSO or PBS control (all concentrations contained equal percentage of DMSO or PBS solvent). Images are taken every 8-12 hours with sufficient image alignment (montaging) in order to capture about 25-100 cells per well/treatment (over the course of the experiment, cell counts typically exceed 1,000 in DMSO or low drug concentration wells). Direct measurements of cell counts are made using Cellavista software and Image J macros. The images are filtered through these computer programs to track and label each cell, quantifying the number of cells in each time-stamped frame. Proliferation is platted as log2 normalized growth, using the initial cell count from the first image frame for normalization. […] The drug-induced proliferation (DIP) rates (see, Harris, L. A., et al. “An unbiased metric of antiproliferative drug effect in vitro,” Nature Methods', 2016, vol. 13, p. 497-500.) are calculated using the slope of the log2-normalized population curves after 24 hrs. […]

Structure (SMILES) | effect of combination with BRAFi on proliferation (DIP rates) (SC10) | effect of combination with BRAFi on proliferation (DIP rates) (A2058 cells; DPI 250 nM, BRAFi 8 μM, FIG. 6A) | DIP rates under BRAF-inhibition (SC10) | DIP rates under BRAF-inhibition (A2058 cells)
COc1cc(C(C)=O)ccc1O [Apocynin] | synergism | – | – | –
c1ccc2c(c1)[I+]c1ccccc1-2 [DPI, Diphenyleneiodonium chloride] | synergism | enhancement of NOX-inhibition on the anti-proliferative effects of BRAF-inhibition | – | –
CN(C)c1cccc(-c2c3c(=O)n(-c4ccccc4Cl)[nH]c3cc(=O)n2C)c1 [GKT137831] | synergism | – | – | –
CCCS(=O)(=O)Nc1ccc(F)c(C(=O)c2c[nH]c3ncc(Cl)cc23)c1F [PLX4720] | – | – | positive DIP rates | positive DIP rates
